According to patent US20060035889A1, “Treatment for methamphetamine addiction and reduction of methamphetamine use using serotonin antagonists” (priority 2004, published 2006):

Columns and labels:
D2 = D2 (Homo sapiens, UniProt P14416); settings: read-out: receptor affinity (Ki) D2; cited from earlier work
α2 = settings: read-out: receptor affinity (Ki) α2; cited from earlier work
METH-conditioned rats = assay: METH-induced conditioned place preference (CPP) with simultaneous motor sensitization; format: in vivo, rat
Source text: The CPP box (Accuscan, Columbus, Ohio) consists of three Plexiglas compartments, each with distinct visual and tactile cues (on one side, patterned floor with object attached and horizontally striped wall; on the opposite side, smooth floor with no object and vertically striped walls; center—uniformly white floor and walls). The center compartment can be separated from the left and right compartments by removable guillotine doors. Motor activity in three dimensional space, and time spent, in each compartment is detected by two sets of photobeams set at different heights from the floor. Drug conditioning is performed by administering METH to the rat while it is in one compartment, and on the alternating day, saline is administered while the rat is confined to the opposite compartment. Confinement was achieved by blocking access to other compartments using the guillotine door. The center compartment is not seen by the rat during conditioning, and all conditioning sessions last for 45 min.
The inventors have determined that the number of METH-pairings, and the dose of METH, dictate the strength of the drug-environment association (i.e., the magnitude of salience attribution). The test for CPP is determined in a METH-free state (i.e., at least 48 hr after that last METH pairing), at which time the rats are placed in the center compartment and allowed free access to all compartments for 30 min, and the time spent in each compartment is the index of preference. The inventors have determined that the number of METH-pairings, and the dose of METH, dictate the strength of the drug-environment association (i.e., the magnitude of salience attribution) and thus the amount of time spent in the compartment previously paired with METH (FIG. 7), as well as persistence of this effect (i.e., how long it lasts; FIG. 8A). METH-induced motor sensitization can be assessed in several ways, including assessing the capacity of the rat to express an enhanced motor response to an acute METH challenge (FIGS. 9 & 10A).
To efficiently apply this approach to testing of 5-HT2A/2C antagonists, we determined that single pairing protocols of the CPP paradigm can be used to predict efficacy outcomes of 5-HT2A/2C antagonists in long-term tests on these drugs evaluating their capacity to nullify the persistent enhanced salience induced by METH. […] Thus, these protocols should help predict the capacity of novel therapeutic targets to halt a common problem of drug relapse, i.e., the ability of re-exposure to drugs like METH to immediately reinstate their abuse.

METH-sensitized rats = assay: Reversal of METH-induced behavioral sensitization by 5-HT2A/2C antagonists (motor activity after acute METH challenge); format: in vivo, rat
Source text: Automation of observational evaluations was accomplished using computerized small animal monitors (AccuScan Instr. Inc., Columbus, Ohio). […] One feature of drug-induced behavioral sensitization is heterogeneity of motor responses and the AccuScan monitors quantify numerous behavioral indices. This is a critical point for the motor profile is exquisitely related to METH dose, the drug history of the rat and observation time. After 3- or 31-days of withdrawal from repeated METH injections, rats were allowed to achieve baseline motor activity with a 30 min habituation period, challenged with 1 mg/kg sc METH and monitored for 90 min.
Multiple 5-HT2A/2C antagonists with differing pharmacological profiles were tested for their ability to ameliorate METH-induced behavioral sensitization when administered after sensitization has developed. […] The doses were selected based on the antagonists' ability to block 5-HT2A- and 5-HT2C-mediated activity and their pharmacokinetic profiles.

5-HT3 = molecular target: T1, 5-HT3 (Homo sapiens, UniProt P46098); settings: read-out: receptor affinity (Ki) 5-HT3; cited from earlier work
T1 sequence (P46098 24-478): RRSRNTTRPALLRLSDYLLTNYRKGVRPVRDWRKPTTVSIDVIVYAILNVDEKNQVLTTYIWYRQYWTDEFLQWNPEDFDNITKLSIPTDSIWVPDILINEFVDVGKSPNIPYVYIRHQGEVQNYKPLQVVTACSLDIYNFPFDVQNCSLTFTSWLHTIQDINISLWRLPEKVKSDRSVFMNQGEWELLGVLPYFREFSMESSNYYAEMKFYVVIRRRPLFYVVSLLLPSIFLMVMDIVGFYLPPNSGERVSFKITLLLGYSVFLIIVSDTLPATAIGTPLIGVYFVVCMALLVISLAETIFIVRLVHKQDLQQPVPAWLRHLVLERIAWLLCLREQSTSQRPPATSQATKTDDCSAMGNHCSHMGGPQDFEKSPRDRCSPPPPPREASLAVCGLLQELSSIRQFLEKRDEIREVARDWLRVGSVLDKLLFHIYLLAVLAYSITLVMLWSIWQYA

5-HT2C = molecular target: T2, 5-HT2C (Homo sapiens, UniProt P28335); settings: read-out: receptor affinity (Ki) 5-HT2C; cited from earlier work
T2 sequence (P28335 33-458): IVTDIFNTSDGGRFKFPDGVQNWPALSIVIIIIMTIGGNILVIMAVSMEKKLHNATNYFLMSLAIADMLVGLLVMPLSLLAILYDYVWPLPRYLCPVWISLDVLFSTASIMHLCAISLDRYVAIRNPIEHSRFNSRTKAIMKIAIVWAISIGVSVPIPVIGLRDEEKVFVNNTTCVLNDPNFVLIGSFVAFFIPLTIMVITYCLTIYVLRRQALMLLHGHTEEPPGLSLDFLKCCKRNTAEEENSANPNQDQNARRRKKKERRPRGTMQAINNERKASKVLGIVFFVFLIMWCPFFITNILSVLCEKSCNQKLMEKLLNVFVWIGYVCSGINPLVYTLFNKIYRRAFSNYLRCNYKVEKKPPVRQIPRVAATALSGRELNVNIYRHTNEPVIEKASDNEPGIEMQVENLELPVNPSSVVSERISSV

Sequence of D2 (P14416 whole entry): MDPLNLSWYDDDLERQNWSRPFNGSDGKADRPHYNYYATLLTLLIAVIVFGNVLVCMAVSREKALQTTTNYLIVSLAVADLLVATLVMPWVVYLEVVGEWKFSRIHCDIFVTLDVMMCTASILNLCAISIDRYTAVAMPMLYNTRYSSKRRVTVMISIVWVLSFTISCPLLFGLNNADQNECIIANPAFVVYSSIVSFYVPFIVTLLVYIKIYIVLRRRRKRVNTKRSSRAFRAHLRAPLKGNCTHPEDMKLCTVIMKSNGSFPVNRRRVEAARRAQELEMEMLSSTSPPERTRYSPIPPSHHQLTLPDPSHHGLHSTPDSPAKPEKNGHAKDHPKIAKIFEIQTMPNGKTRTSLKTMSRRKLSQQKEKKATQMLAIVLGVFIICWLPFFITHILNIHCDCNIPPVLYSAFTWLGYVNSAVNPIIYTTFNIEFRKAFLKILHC

For `CN1CCN2c3ncccc3Cc3ccccc3[C@@H]2C1` (racemic) [mirtazapine, 1,2,3,4,10,14b-hexahydro-2-methyl-pyrazino[2,1-a]pyrido[2,3-c]benzazepine], the Ki (D2) is given as over 1000 nM, the Ki (α2) is given as 65 nM and the “preference to the place previously paired with METH (CPP expression)” value (METH-conditioned rats; 3 pairings 1 mg/kg ip METH, ten once-daily 5 mg/kg ip mirtazapine during withdrawal, day 20 (FIG. 8B)) is given as “completely reverse”. For the same molecule, the “associated motor sensitization (number of rears)” value (METH-conditioned rats; mirtazapine during METH withdrawal, METH challenge day 22 (FIG. 10B)) was “completely reverse”, the “ability of subsequent METH pairings to induce CPP (reinstatement)” value (METH-conditioned rats; repeated mirtazapine during withdrawal, day 25 (FIG. 12)) was “renders ineffective” and the “CPP expression after single pairing of 1.0 mg/kg METH” value (METH-conditioned rats; single home cage injection 0.5, 1.0 or 5.0 mg/kg mirtazapine 24 h before test (FIG. 11)) was “reversal of METH-induced CPP”. For the same molecule, the “vertical movement suppression seen in METH-pretreated rats” value (METH-sensitized rats; mirtazapine 5 mg/kg x 15 days) was “attenuation of the vertical movement suppression”, the “decreases in total distance traveled and time spent ambulating induced by METH pretreatments” value (METH-sensitized rats; mirtazapine 5 mg/kg x 15 days, data not shown) was “attenuated the decreases” and the horizontal activity (METH-sensitized rats; mirtazapine 5 mg/kg x 15 days, first 60 min after acute METH challenge) was “slight attenuation”. For the same molecule, the “potentiation of METH-induced sensitization for any assessed behavior” value (METH-sensitized rats; mirtazapine daily 5 mg/kg x 15 days) was “did not potentiate”, the “overall attenuation of METH-sensitized responses” value (METH-sensitized rats; mirtazapine daily 5 mg/kg x 15 days, M-F) was “greatest overall attenuation” and the “mirtazapine+saline group vs saline+saline pretreated rats” value (METH-sensitized rats; mirtazapine daily 5 mg/kg x 15 days, saline-pretreated) was “did not differ”. The Ki (5-HT3) was 8 nM and the Ki (5-HT2C) was 12 nM.
